Patent US6417212B1, “Modulators of peroxisome proliferator activated receptors” (Eli Lilly & Company, priority 1999, dated 2002)

What was measured:
huPPARγ [1] = target: T1, huPPARγ (Homo sapiens, UniProt P37231); assay: DNA-dependent binding (ABCD binding), SPA, huPPARγ; conditions: displacement of tritium-labeled PPARγ agonist radioligand
T1 sequence (P37231 1-505): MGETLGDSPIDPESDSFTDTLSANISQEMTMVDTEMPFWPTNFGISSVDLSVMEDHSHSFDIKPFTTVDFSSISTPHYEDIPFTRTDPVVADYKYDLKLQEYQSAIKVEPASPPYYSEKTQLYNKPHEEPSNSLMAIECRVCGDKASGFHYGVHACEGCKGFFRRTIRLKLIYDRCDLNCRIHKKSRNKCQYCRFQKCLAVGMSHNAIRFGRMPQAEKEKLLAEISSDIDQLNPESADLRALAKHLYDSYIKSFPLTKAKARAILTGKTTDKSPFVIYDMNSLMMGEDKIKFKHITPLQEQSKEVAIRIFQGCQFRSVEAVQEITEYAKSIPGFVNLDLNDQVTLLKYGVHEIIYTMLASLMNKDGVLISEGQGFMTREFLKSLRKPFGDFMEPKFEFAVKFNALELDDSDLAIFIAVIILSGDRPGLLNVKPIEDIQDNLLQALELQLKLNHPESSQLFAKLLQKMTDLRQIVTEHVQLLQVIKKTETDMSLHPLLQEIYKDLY
T1 sequence (P19793 1-462 partner): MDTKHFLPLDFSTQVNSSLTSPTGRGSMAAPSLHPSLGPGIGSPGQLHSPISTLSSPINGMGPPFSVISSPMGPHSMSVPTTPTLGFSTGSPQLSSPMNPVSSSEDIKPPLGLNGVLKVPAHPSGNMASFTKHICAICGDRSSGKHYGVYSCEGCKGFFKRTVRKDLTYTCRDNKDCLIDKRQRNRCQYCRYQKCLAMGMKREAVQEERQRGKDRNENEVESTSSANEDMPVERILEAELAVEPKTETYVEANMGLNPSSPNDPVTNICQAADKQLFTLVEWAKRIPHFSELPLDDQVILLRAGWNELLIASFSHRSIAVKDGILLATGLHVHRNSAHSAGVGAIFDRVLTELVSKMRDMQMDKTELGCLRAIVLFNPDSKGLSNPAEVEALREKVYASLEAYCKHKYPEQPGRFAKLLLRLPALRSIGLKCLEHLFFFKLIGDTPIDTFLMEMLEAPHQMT
Experimental: (§1) DNA-dependent binding (ABCD binding) was carried out using SPA technology with PPAR receptors. Tritium-labeled PPARγ and PPARα agonists were used as radioligands for generating displacement curves and IC50 values with compounds of the invention. Cotransfection assays were carried out in CV-1 cells. The reporter plasmid contained an acylCoA oxidase (AOX) PPRE and TK promoter upstream of the luciferase reporter cDNA. Appropriate PPARs and RXRα were constitutively expressed using plasmids containing the CMV promoter. […] In order to eliminate such interference, a GAL4 chimeric system was used in which the DNA binding domain of the transfected PPAR was replaced by that of GAL4, and the GAL4 response element was utilized in place of the AOX PPRE. Cotransfection efficacy was determined relative to PPARα agonist and PPARβ agonist reference molecules. Efficacies were determined by computer fit to a concentration-response curve, or in some cases at a single high concentration of agonist (10 μM). For binding or cotransfection studies with receptors other than PPARs, similar assays were carried out using appropriate ligands, receptors, reporter constructs, etc., for that particular receptor.
(§2) These studies were carried out to evaluate the ability of compounds of the invention to bind to and/or activate various nuclear transcription factors, particularly huPPARα (“hu” indicates “human”) and huPPARγ. These studies provide in vitro data concerning efficacy and selectivity of compounds of the invention. Furthermore, binding and cotransfection data for compounds of the invention were compared with corresponding data for marketed compounds that act on either huPPARα or huPPARγ.

huPPARα [2] = target: T2, huPPARα (Homo sapiens, UniProt Q07869); assay: DNA-dependent binding (ABCD binding), SPA, huPPARα; conditions: displacement of tritium-labeled PPARα agonist radioligand
T2 sequence (Q07869 1-468): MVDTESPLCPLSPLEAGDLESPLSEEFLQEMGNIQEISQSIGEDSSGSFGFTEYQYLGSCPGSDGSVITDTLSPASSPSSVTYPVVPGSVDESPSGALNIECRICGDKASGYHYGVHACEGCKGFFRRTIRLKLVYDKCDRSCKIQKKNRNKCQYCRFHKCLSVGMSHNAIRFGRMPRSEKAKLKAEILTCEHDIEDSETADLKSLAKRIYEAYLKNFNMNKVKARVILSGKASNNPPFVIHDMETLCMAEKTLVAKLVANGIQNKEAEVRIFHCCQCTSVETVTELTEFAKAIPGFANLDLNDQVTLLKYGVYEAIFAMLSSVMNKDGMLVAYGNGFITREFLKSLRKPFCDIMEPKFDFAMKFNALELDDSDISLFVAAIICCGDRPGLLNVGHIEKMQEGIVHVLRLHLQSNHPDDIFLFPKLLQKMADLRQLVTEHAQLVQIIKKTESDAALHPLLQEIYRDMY
T2 sequence (P19793 1-462 partner): T1 sequence (P19793 1-462 partner)
Experimental: as §1, §2

huPPARγ [3] = target: T1, huPPARγ; assay: Cotransfection assay in CV-1 cells, huPPARγ; type: cell-based; set-up: expressed in transfected cells; host or cells: CV-1 cells; conditions: AOX PPRE luciferase reporter, relative to agonist reference molecule; for Emax: read-out: huPPARγ CTF Efficacy
Experimental: as §1, with “Tritium-labeled PPARγ and PPARα agonists were used as radioligands for generating displacement curves and IC50 values with compounds of the invention.” left out, “Cotransfection efficacy was determined relative to PPARα agonist and PPARβ agonist reference molecules.” left out
as §2

huPPARα [4] = assay: Cotransfection assay in CV-1 cells, huPPARα (GAL4 chimeric system); type: cell-based, human; conditions: luciferase reporter, relative to PPARα agonist reference molecule
Experimental: DNA-dependent binding (ABCD binding) was carried out using SPA technology with PPAR receptors. Tritium-labeled PPARγ and PPARα agonists were used as radioligands for generating displacement curves and IC50 values with compounds of the invention. Cotransfection assays were carried out in CV-1 cells. The reporter plasmid contained an acylCoA oxidase (AOX) PPRE and TK promoter upstream of the luciferase reporter cDNA. Appropriate PPARs and RXRα were constitutively expressed using plasmids containing the CMV promoter. For PPARα and PPARβ, interference by endogenous PPARγ in CV-1 cells was an issue. In order to eliminate such interference, a GAL4 chimeric system was used in which the DNA binding domain of the transfected PPAR was replaced by that of GAL4, and the GAL4 response element was utilized in place of the AOX PPRE. Cotransfection efficacy was determined relative to PPARα agonist and […] reference molecules. Efficacies were determined by computer fit to a concentration-response curve, or in some cases at a single high concentration of agonist (10 μM). For binding or cotransfection studies with receptors other than PPARs, similar assays were carried out using appropriate ligands, receptors, reporter constructs, etc., for that particular receptor.
as §2

IC50 (huPPARγ [1])	IC50 (huPPARα [2])	Emax (huPPARγ [3])	huPPARγ CTF Efficacy (huPPARγ [3])	Structure (SMILES)	huPPARα CTF Efficacy (huPPARα [4])
81 nM	125 nM	71%		Cc1oc(-c2ccc(-c3ccccc3)cc2)nc1CCOc1ccc(OC(C)(C)C(=O)O)c(CC2CCCCC2)c1 [Example 25, 2-{4-[2-(2-Biphenyl-4-yl-5-methyloxazol-4-yl)-ethoxy]-2-cyclohexylmethyl-phenoxy}-2-methyl-propionic acid]	104%
1530 nM	371 nM	126%		Cc1oc(-c2ccc(-c3ccccc3)cc2)nc1CCSc1ccc(OC(C)(C)C(=O)O)cc1 [Example 47, 2-{4-[2-(2-Biphenyl-4-yl-5-methyloxazol-4-yl)-ethylsulfanyl]-phenoxy}-2-methyl-propionic acid]	90%
1790 nM	539 nM	145%		Cc1oc(-c2ccc(-c3ccc[nH]3)cc2)nc1CCOc1ccc(OC(C)(C)C(=O)O)cc1 [Example 18, 2-Methyl-2-[4-(2-{5-methyl-2-[4-(1H-pyrrol-2-yl)-phenyl]-oxazol-4-yl}-ethoxy)-phenoxy]propionic acid]	97%
1060 nM	350 nM	80%		COc1ccccc1-c1ccc(-c2nc(CCOc3ccc(OC(C)(C)C(=O)O)cc3)c(C)o2)cc1 [Example 10, 2-(4-{2-[2-(2′-Methoxy-biphenyl-4-yl)-5-methyloxazol-4-yl]-ethoxy}-phenoxy)-2-methylpropionic acid]	111%
24 nM	65 nM	61%		Cc1oc(-c2cccc(-c3ccccc3)c2)nc1CCOc1ccc(OC(C)(C)C(=O)O)c(Cc2ccccc2)c1 [Example 35, 2-{2-Benzyl-4-[2-(2-biphenyl-3-yl-5-methyloxazol-4-yl)-ethoxy]-phenoxy}-2-methyl-propionic acid]	90%
12 nM	47 nM	60%		CCCCc1cc(OC(C)(C)C(=O)O)ccc1OCCc1nc(-c2cccc(-c3ccccc3)c2)oc1C [Example 32, 2-{4-[2-(2-Biphenyl-3-yl-5-methyloxazol-4-yl)ethoxy]-3-butylphenoxy}-2-methylpropionic acid]	91%
62 nM	140 nM	92%		Cc1oc(-c2ccc(-c3ccccc3)cc2)nc1CCOc1ccc(OC(C)(C)C(=O)O)c(Cc2ccccc2)c1 [Example 36, 2-{2-Benzyl-4-[2-(2-biphenyl-4-yl-5-methyloxazol-4-yl)-ethoxy]-phenoxy}-2-methyl-propionic acid]	140%
227 nM	193 nM	55%		Cc1oc(-c2ccc(-c3ccccc3)cc2)nc1CCOc1ccc(OC(C)(C)C(=O)O)cc1CC1CCCCC1 [Example 34, 2-{4-[2-(2-Biphenyl-4-yl-5-methyloxazol-4-yl)ethoxy]-3-cyclohexylmethylphenoxy}-2-methylpropionic acid]	180%
140 nM	172 nM	63%		Cc1oc(-c2ccc(-c3ccccc3)cc2)nc1CCOc1ccc(OC(C)(C)C(=O)O)c(CCc2ccccc2)c1 [Example 28, 2-{4-[2-(2-Biphenyl-4-yl-5-methyloxazol-4-yl)ethoxy]-2-phenethylphenoxy}-2-methylpropionic acid]	93%
33 nM	78 nM	73%		Cc1oc(-c2cccc(-c3ccccc3)c2)nc1CCOc1ccc(OC(C)(C)C(=O)O)c(CC2CCCCC2)c1 [Example 26, 2-{4-[2-(2-Biphenyl-3-yl-5-methyloxazol-4-yl)-ethoxy]-2-cyclohexylmethyl-phenoxy}-2-methyl-propionic acid]	111%
			0%	CC(C)(Oc1ccc(C(=O)c2ccc(Cl)cc2)cc1)C(=O)O [Fenofibric acid, reference compound]	16%
928 nM	475 nM	100%		Cc1oc(-c2ccc(-c3ccccc3F)cc2)nc1CCOc1ccc(OC(C)(C)C(=O)O)cc1 [Example 13, 2-(4-{2-[2-(2′-Fluorobiphenyl-4-yl)-5-methyloxazol-4-yl]-ethoxy}-phenoxy)-2-methylpropionic acid]	84%
